Four molecules from patent US20240132498A1, “CRYSTALLINE FORMS OF 5-(3,4-DIFLUOROBENZYL)-8-((1R,4R)-4-METHYLCYCLOHEXYL)-6,9-DIOXO-2,5,8-TRIAZASPIRO[3.5]NONANE-2-CARBALDEHYDE” (Cytokinetics, Incorporated, priority 2022, published 2024) can be followed below.

Series [1] can be described thus: Mouse single dose pharmacokinetics. To be noted: plasma, iv, 0.5 mg/kg, male C57BL/6 mice; for Vd: read-out: Vss. The format is in vivo. How it is done: Male C57BL/6 mice (18-25 g, 6-8 weeks old) were obtained from Zhejiang Vital River Laboratory Animal Technology Co., Ltd. All animals for IV administration had free access to food and water. The IV dosing was performed through tail vein. The IV dose solution for the Test Articles was prepared in 10% DMA/20% PG/70% HPOCD solution (40% w/v aqueous HPOCD) at a concentration of 0.1 mg/mL. The oral dosing suspension was prepared by suspending Test Article in 0.5% HPMC/0.1% Tween 80 in water at a concentration 0.2 mg/mL. Concentrations of IV and PO doses were measured at the end of the study. Pharmacokinetic (PK) parameters were calculated using the nominal dose values if the measured values were within 20% of the nominal values. A group of 15 mice received the IV dose where the volume was 5 mL/kg. Another group of 15 mice received by oral gavage of Test Article at 1 mg/kg. The oral dose volume was 5 mL/kg. Sparse blood samples were collected from groups of three mice via retro-orbital bleeding, placed into a K2EDTA microtainer tube and maintained on ice until centrifugation to obtain plasma. Each designated group of mice were bled at two-time points. The time points were predose (PO only), 5 (IV only), 15, 30 minutes, 1, 2, 4, 6, 8 and 24 hours postdose. Blood samples were centrifuged and the collected plasma was stored at −80° C. until analysis. Plasma samples were analyzed for Test Article concentrations using an LC/MS/MS method. Briefly, a 50 p L aliquot of each plasma sample was mixed with 100 μL of acetonitrile that contained an internal standard (IS). The mixture was vortexed and centrifuged. Ten (10) p L of the resulting solution was injected onto a reverse-phase C18 column and the resultant peaks detected on a LC/MS/MS equipped with a turbo ionspray ionization source. Sample concentrations below the limit of quantification (BLQ) were treated as zero for PK calculations. Composite PK parameters were estimated from a maximum of two sampling points per mouse and three mice per sampling point and the sparse data option of WinNonlin was used for noncompartmental analysis of the concentration-time data (Phoenix WinNonLin software, version 64; Pharsight, Mountain View, CA). The elimination rate constant (k) was calculated as the absolute value of the slope of the linear regression of logarithm of the concentration versus time for the last three data points of the concentration-time profiles. Apparent elimination half-life (t½) values were calculated as 1n(2)/k. Area under the concentration-time curve (AUC) values were estimated using linear trapezoidal method. AUC values were calculated from the dosing time to the last measurable concentration. AUC∞ values were calculated as the sum of the corresponding AUC and the ratio of the last detectable concentration divided by k. Plasma clearance (CL) was calculated from Dose/AUC. Mean resident time (MRT) was estimated by moment analysis. Volume of distribution at steady state (Vss) was calculated from MRT∞×CL. Maximum concentration (Cmax) and time to reach Cmax (tmax) were recorded as observed. Bioavailability was calculated dAUC∞,po/dAU∞.iv×100% where dAUC was the dose normalized AUC value. Compounds tested were prepared in accordance with the synthetic procedures described herein.

The target in another series is T1, CYP2C19 (Homo sapiens, UniProt P33261).
T1 construct: from tissue; host or cells: pooled human liver microsomes
T1 sequence (P33261 whole entry): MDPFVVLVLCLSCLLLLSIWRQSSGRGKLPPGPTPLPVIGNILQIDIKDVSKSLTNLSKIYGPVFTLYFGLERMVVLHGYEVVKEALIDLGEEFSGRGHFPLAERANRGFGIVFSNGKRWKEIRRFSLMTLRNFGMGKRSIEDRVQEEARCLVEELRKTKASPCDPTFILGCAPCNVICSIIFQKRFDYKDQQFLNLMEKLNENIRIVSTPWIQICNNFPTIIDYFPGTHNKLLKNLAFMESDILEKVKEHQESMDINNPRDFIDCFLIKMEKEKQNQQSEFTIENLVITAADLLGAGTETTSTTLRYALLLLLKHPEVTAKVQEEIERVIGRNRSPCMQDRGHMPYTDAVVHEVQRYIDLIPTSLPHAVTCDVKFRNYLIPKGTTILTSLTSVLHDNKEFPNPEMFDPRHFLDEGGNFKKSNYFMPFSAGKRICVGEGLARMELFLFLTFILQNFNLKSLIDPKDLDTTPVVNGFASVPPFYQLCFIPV
Briefly: Time-dependent inhibition of CYP450 enzymes in human liver microsomes: CYP2C19. The format is in vitro ADME. The settings on record: for fold change in activity (time dependent inhibition), 2C19: human liver microsomes. How it is done:
(§1) An assessment of the time-dependent Inhibitory Potential of the test compounds against Principal Human Cytochrome P450 Isozymes using Human Liver Microsomes was also carried out using standard methods (Grimm et al, Drug Metab. Dispos., Jul; 37(7):1355-70. doi: 10.1124/dmd.109.026716, 2009). Pooled human microsomes and selective CYP probe substrates were used for in vitro assessment of test compounds at 25 and 50 μM as time-dependent inhibitors of […] human hepatic cytochrome P450 isozymes (CYP1A2, 2B6, 2C9, 2C19, 2D6, and 3A4). LC-MS/MS was used to quantify metabolite formation. The inhibition of each P450 enzyme in human liver microsomes was measured as the percentage decrease in the activity of marker metabolite formation as measured by LC-MS/MS compared to non-inhibited controls (=100% activity) at time zero and after 30 minutes incubation. The occurrence of any time dependent inhibition was then expressed as the fold change in enzyme activity at time zero relative to the activity after 30 minutes incubation. The time dependent inhibition for the compound 5-(3,4-difluorobenzyl)-8-((1 r,4r)-4-methylcyclohexyl)-6,9-dioxo-2,5, 8-triazaspiro [3.5]nonane-2-carbaldehyde (Compound 1) against CYP1A2, […], CYP2C8, CYP2C9, CYP2C19, CYP2D6, CYP3A4-M and CYP3A4-T is shown in Table B-12.

Series [2] concerns the target T2, CYP3A4 (Homo sapiens, UniProt P08684).
T2 construct: from tissue; host or cells: pooled human liver microsomes
Briefly: Time-dependent inhibition of CYP450 enzymes in human liver microsomes: CYP3A4-T (testosterone probe). The settings on record: human, pooled human liver microsomes, CYP3A4-T (testosterone probe); for activity at 30 min, 25 µM / activity at 30 min, 50 µM: 30 minutes incubation, read-out: % Activity NADPH T30; for activity at 0 min, 25 µM / activity at 0 min, 50 µM: time zero, read-out: % Activity NADPH T0. The format is in vitro ADME. As for the experimental part:
as §1

The next series addresses T3, CYP3A4-T (Homo sapiens, UniProt P08684).
T3 construct: from tissue; host or cells: pooled human liver microsomes
The description is as above. It counts as in vitro ADME. The settings on record: for (% Activity NADPH T0)/(% Activity NADPH T30): CYP3A4-T (testosterone probe); for fold change in enzyme activity (time dependent inhibition), 3A4: human liver microsomes, testosterone probe, time zero vs 30 minutes incubation, 25 and 50 μM. How it is done:
as §1

For series [3], the target named is T2, CYP3A4. Kind of series: Time-dependent inhibition of CYP450 enzymes in human liver microsomes: CYP3A4-M (midazolam probe). It counts as in vitro ADME. The settings on record: human, pooled human liver microsomes, CYP3A4-M (midazolam probe); for activity at 30 min, 25 µM / activity at 30 min, 50 µM: 30 minutes incubation, read-out: % Activity NADPH T30; for activity at 0 min, 25 µM / activity at 0 min, 50 µM: time zero, read-out: % Activity NADPH T0. As for the experimental part:
as §1

Another series concerns the target T4, CYP3A4-M (Homo sapiens, UniProt P08684).
T4 construct: from tissue; host or cells: pooled human liver microsomes
The description is as above. The format is in vitro ADME. The settings on record: for (% Activity NADPH T0)/(% Activity NADPH T30): CYP3A4-M (midazolam probe); for fold change in enzyme activity (time dependent inhibition), 3A4: human liver microsomes, midazolam probe, time zero vs 30 minutes incubation, 25 and 50 μM. How it is done:
as §1

The nature of series [4]: Short-term static storage stability of the solid (XRPD, HPLC). It counts as physicochemical. As for the experimental part: Purity analysis was performed on an Agilent HP1100/Infinity 111260 series system equipped with a diode array detector and using OpenLAB software. The full method details are provided below.
For short-term (8 days or fewer) stability experiments, solid material was placed into open vials at elevated storage conditions, unless otherwise stated. These conditions were achieved using saturated salt solutions at specific temperatures within sealed containers. Storage containers were pre-equilibrated prior to input of samples.

T2 sequence (P08684 whole entry): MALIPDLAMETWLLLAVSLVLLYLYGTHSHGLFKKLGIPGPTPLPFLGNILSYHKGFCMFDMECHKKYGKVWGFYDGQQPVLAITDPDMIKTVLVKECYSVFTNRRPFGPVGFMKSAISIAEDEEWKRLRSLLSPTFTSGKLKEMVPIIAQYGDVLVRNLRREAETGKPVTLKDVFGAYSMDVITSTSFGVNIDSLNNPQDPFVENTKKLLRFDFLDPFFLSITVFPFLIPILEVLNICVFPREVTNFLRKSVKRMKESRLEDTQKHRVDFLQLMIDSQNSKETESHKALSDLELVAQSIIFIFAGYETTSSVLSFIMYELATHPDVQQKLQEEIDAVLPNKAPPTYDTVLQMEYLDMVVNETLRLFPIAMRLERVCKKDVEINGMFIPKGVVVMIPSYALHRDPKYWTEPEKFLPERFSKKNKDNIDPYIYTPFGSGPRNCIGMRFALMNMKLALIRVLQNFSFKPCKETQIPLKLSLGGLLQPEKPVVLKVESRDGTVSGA
T3 sequence (P08684 whole entry): as above
T4 sequence (P08684 whole entry): as above

In series [1], `C[C@H]1CC[C@H](N2CC(=O)N(Cc3ccc(F)c(F)c3)C3(CN(C=O)C3)C2=O)CC1` [Compound 1, 5-(3,4-difluorobenzyl)-8-((1r,4r)-4-methylcyclohexyl)-6,9-dioxo-2,5,8-triazaspiro[3.5]nonane-2-carbaldehyde] came in with a clearance of 28.4 mL/min/kg. In series [1], this molecule gave a half-life of 1.77 h. Moreover, the Vd in series [1] amounted to 4.2 L/kg. Further, the “(% Activity NADPH T0)/(% Activity NADPH T30)” value at CYP2C19 (CYP2C19, 25 μM) worked out at 1.4; on CYP2C19 (CYP2C19, 50 μM), 1.1; at CYP3A4-T (25 μM) it was 0.9; at CYP3A4-T (50 μM), 0.8; on CYP3A4-M (25 μM), 0.8; at CYP3A4-M (50 μM) it was 0.7. The figures for the “fold change in activity (time dependent inhibition), 2C19” value at CYP2C19 (25 μM) and on CYP2C19 (50 μM) were 1.4 fold and “no change in activity”, respectively. The activity at 30 min, 25 µM on CYP2C19 (human, pooled human liver microsomes, CYP2C19, 25 μM, 30 minutes incubation, read-out: % Activity NADPH T30) was 86%; at CYP3A4 [2] it was 90%; on CYP3A4 [3], 88%. Besides, the activity at 0 min, 25 µM at CYP2C19 (human, pooled human liver microsomes, CYP2C19, 25 μM, time zero, read-out: % Activity NADPH T0) is 117%; at CYP3A4 [2], 80%; at CYP3A4 [3] it was 70%. Also, the activity at 30 min, 50 µM on CYP2C19 (human, pooled human liver microsomes, CYP2C19, 50 μM, 30 minutes incubation, read-out: % Activity NADPH T30) turned out to be 75%; on CYP3A4 [2], 98%; at CYP3A4 [3], 78%. Also, the activity at 0 min, 50 µM amounted to 84% at CYP2C19 (human, pooled human liver microsomes, CYP2C19, 50 μM, time zero, read-out: % Activity NADPH T0); 83% at CYP3A4 [2]; 57% at CYP3A4 [3]. For the same molecule, the “fold change in enzyme activity (time dependent inhibition), 3A4” value on CYP3A4-T and on CYP3A4-M was no more than 1.2 fold each time.

In turn, `O=C1[C@H](C2COC2)N(Cc2ccc(C(F)(F)F)cc2)C(=O)CN1c1ncc(Cl)cc1F` [Comparator C, (S)-1-(5-chloro-3-fluoropyridin-2-yl)-3-(oxetan-3-yl)-4-(4-(trifluoromethyl)benzyl)piperazine-2,5-dione, reference compound] gave a clearance in series [1] of 4.67 mL/min/kg. Besides, in series [1], the half-life is 2.6 h. The Vd in series [1] turned out to be 1.39 L/kg. Moreover, the activity at 30 min, 25 µM worked out at 23% on CYP3A4 [2] and 48% at CYP3A4 [3]. Also, the activity at 0 min, 25 µM on CYP3A4 [2] was 41%; at CYP3A4 [3] it was 75%. Besides, the activity at 30 min, 50 µM at CYP3A4 [2] was 19%; at CYP3A4 [3] it was 33%. Moreover, the activity at 0 min, 50 µM at CYP3A4 [2] worked out at 35%; at CYP3A4 [3], 57%. Also, the “(% Activity NADPH T0)/(% Activity NADPH T30)” value at CYP3A4-T (25 μM) is 1.8; at CYP3A4-T (50 μM) it was 1.8; at CYP3A4-M (25 μM), 1.6; at CYP3A4-M (50 μM), 1.7. Also, the “fold change in enzyme activity (time dependent inhibition), 3A4” value at CYP3A4-T and on CYP3A4-M was greater than 1.5 fold in each case.

The molecule `C[C@H]1CC[C@H](N2CC(=O)N(Cc3ccc(F)c(F)c3)C3(CN(C=O)C3)C2=O)CC1` [Form II, 5-(3,4-difluorobenzyl)-8-((1r,4r)-4-methylcyclohexyl)-6,9-dioxo-2,5,8-triazaspiro[3.5]nonane-2-carbaldehyde] gave an HPLC purity in series [4] (Before Storage) of 98.2%. Moreover, the figures for the XRPD result in series [4] (Before Storage), in series [4] (Storage at 25° C./97% RH for 8 days) and in series [4] (Storage at 40° C./75% RH for 8 days) were “Form II”, “Unchanged by XRPD” and “Unchanged by XRPD”, respectively.

Take `O=CN1CC2(C1)C(=O)N([C@H]1CC[C@H](C(F)F)CC1)CC(=O)N2Cc1ccc(C(F)(F)F)cc1` [Comparator E, 8-((1r,4r)-4-(difluoromethyl)cyclohexyl)-6,9-dioxo-5-(4-(trifluoromethyl)benzyl)-2,5,8-triazaspiro[3.5]nonane-2-carbaldehyde]: in series [1], the clearance amounted to 11.6 mL/min/kg, the half-life was 2.8 h and the Vd stood at 3.28 L/kg.
